Results from publication PMC5575539 (Journal of Clinical Pharmacology, 2017).
Like-named read-outs stand apart in the source and are kept apart here.

What was measured:
[1] = Population pharmacokinetic analysis of lenvatinib; assay type: in vivo, human; settings: for Additional (ng/mL) (TAD ≤ 2 hours) / Proportional (%CV) (Clinical pharmacology studies) / Proportional (%CV) (Patient studies) / Proportional (%CV) (TAD ≤ 2 hours): residual error
[2] = assay type: in vivo, human; settings: for AUC: human, plasma, oral, 12 mg, Median AUC based on the starting dose, steady state, model‐derived
[3] = 4‐week cycles, continuous schedule; subjects with Child‐Pugh class A; cited from earlier work
[4] = test system: subjects with HCC Child‐Pugh class A; settings: 12 mg QD; independent radiologic review per modified RECIST; cited from earlier work
[5] = assay type: in vivo, human; settings: ROC curve; TEAEs during cycle 1; subjects with HCC
[6] = final model, bootstrap median (2.5‐97.5 percentile)
[7] = final model, population mean (%RSE)
[8] = base model, population mean (%RSE)

Compound: COc1cc2nccc(Oc3ccc(NC(=O)NC4CC4)c(Cl)c3)c2cc1C(N)=O [lenvatinib]
- Ka ([1]; base model, population mean (%RSE), absorption rate): 1.02 (6.06) L/h
- D1 ([1]; base model, population mean (%RSE), duration of 0‐order absorption): 1.05 (5.45) hours
- F1 (capsule vs tablet formulation) ([1]; base model, population mean (%RSE), relative bioavailability): 0.832 (0.982)
- Effect of the HCC population (HCC vs other cancer type) on CL/F ([1]; covariate analysis, model including body weight and alkaline phosphatase effects): not a statistically significant effect
- CL/F interindividual variability explained by body weight ([1]; final PK model): 10.5%
- CL/F interindividual variability explained by other covariates ([1]; final PK model): 14.3%
- Decrease of CL/F with CYP3A4 inhibitors ([1]; final PK model): 7.8%
- Decrease of CL/F with alkaline phosphatase above the upper limit of normal ([1]; final PK model): 14.8%
- Higher CL/F in healthy subjects than in patients with cancer ([1]; final PK model): 19%
- Increase of CL/F with concomitant administration of CYP3A4 inducers ([1]; final PK model): 30%
- Decrease of CL/F with alkaline phosphatase above the upper limit of normal ([1]; final PK model, listed as Lenvatinib): 15%
- ALP (> ULN vs ≤ ULN) on CL/F [ΘALP] [1, 6]: 0.855 (0.807‐0.910)
- Body weight on V1/F, V2/F, and V3/F [ΘWGT2] [1, 6]: 1.08 (0.876‐1.28)
- D1 [1, 6]: 1.06 (0.987‐1.14) hours
- F1 (capsule vs tablet formulation) [1, 6]: 0.867 (0.815‐0.908)
- Ka [1, 6]: 1.04 (0.933‐1.13) L/h
- Population (healthy vs subjects) on CL/F [ΘTM] [1, 6]: 1.19 (1.11‐1.27)
- ALP (> ULN vs ≤ ULN) on CL/F [ΘALP] [1, 7]: 0.852 (1.24)
- Population (healthy vs subjects) on CL/F [ΘTM] [1, 7]: 1.19 (3.26)
- Ka ([1]; final model, population mean (%RSE), absorption rate): 1.04 (6.80) L/h
- D1 ([1]; final model, population mean (%RSE), duration of 0‐order absorption): 1.06 (5.77) hours
- Body weight on V1/F, V2/F, and V3/F [ΘWGT2] ([1]; final model, population mean (%RSE), power exponent on WGT/75): 1.08 (5.42)
- F1 (capsule vs tablet formulation) ([1]; final model, population mean (%RSE), relative bioavailability): 0.867 (1.00)
- Differences in CL/F between HCC Child‐Pugh class A and B groups ([1]; population PK analysis): No differences in CL/F
- Additional (ng/mL) (TAD ≤ 2 hours) [1, 8]: 7.29 (16.2) ng/mL
- Proportional (%CV) (Clinical pharmacology studies) [1, 8]: 18.4 (0.888) %CV
- Proportional (%CV) (Patient studies) [1, 8]: 30.7 (2.03) %CV
- Proportional (%CV) (TAD ≤ 2 hours) [1, 8]: 44.9 (3.75) %CV
- Additional (ng/mL) (TAD ≤ 2 hours) [1, 6]: 7.50 (4.62‐9.85) ng/mL
- Proportional (%CV) (Clinical pharmacology studies) [1, 6]: 17.1 (15.5‐18.8) %CV
- Proportional (%CV) (Patient studies) [1, 6]: 30.1 (27.7‐32.2) %CV
- Proportional (%CV) (TAD ≤ 2 hours) [1, 6]: 44.8 (40.7‐48.8) %CV
- Additional (ng/mL) (TAD ≤ 2 hours) [1, 7]: 7.35 (16.3) ng/mL
- Proportional (%CV) (Clinical pharmacology studies) [1, 7]: 17.3 (0.883) %CV
- Proportional (%CV) (Patient studies) [1, 7]: 30.2 (2.00) %CV
- Proportional (%CV) (TAD ≤ 2 hours) [1, 7]: 44.8 (3.87) %CV
- Subjects who experienced TEAEs leading to dose reduction or discontinuation during cycle 1 ([2]; 21 of 45 subjects in the exposure–response population, 12 mg QD, HCC): 46.7%
- Relationship between lenvatinib exposure and response (time to progression) ([2]; Kaplan‐Meier, tertiles of AUC based on starting dose of 12 mg, independent reviewer assessments): No relationship
- AUC ([2]; subjects with early dose withdrawal or reduction): 2.95 µg·h/mL
- AUC ([2]; subjects without early dose modification): 2.05 µg·h/mL
- Maximum tolerated dose [3]: 12 mg QD
- Median time to progression [4]: 7.4 months
- Objective response rate [4]: 37%
- Best cutoff value of lenvatinib AUC to predict high‐risk group for early drug withdrawal or dose reduction [5]: 2430 ng·h/mL
